According to article PMC4589873, “A pain-inducing centipede toxin targets the heat activation machinery of nociceptor TRPV1” (Nature Communications, 2015):
“Also recorded” adds a separate entry of the source. Where a SMILES comes first, the peptide text is derived from it. Bridges are numbered along the chain shown (N, C = ends).

Experiments:
voltage-gated K channels = experiment: Selectivity recording on voltage-gated K channels; format: cell-based; conditions: 10 μM RhTx compared to toxin-free treatment
Description: (§1) Supplementary Figure 3. […]
(§2) mTRPV2 (c), mTRPV3 (d) and mTRPV4 (e). (f) Treatment with 10 μM RhTx (red traces)

[1] = test system: voltage-gated Na channels; experiment: Selectivity recording on voltage-gated Na channels; format: cell-based; conditions: 10 μM RhTx compared to toxin-free treatment
Description: as §1, §2

[2] = test system: voltage-gated Ca channels; experiment: Selectivity recording on voltage-gated Ca channels; format: cell-based; conditions: 10 μM RhTx compared to toxin-free treatment
Description: as §1, §2

mTRPV1 = molecular target: T1, mTRPV1 (Mus musculus, UniProt Q704Y3); experiment: Inside-out patch, toxin applied from the intracellular side; format: cell-based; conditions: inside-out patch containing mTRPV1, holding 0 mV, testing +80 mV
T1 construct: expressed in transfected cells; host or cells: HEK-293T
T1 sequence (Q704Y3 whole entry): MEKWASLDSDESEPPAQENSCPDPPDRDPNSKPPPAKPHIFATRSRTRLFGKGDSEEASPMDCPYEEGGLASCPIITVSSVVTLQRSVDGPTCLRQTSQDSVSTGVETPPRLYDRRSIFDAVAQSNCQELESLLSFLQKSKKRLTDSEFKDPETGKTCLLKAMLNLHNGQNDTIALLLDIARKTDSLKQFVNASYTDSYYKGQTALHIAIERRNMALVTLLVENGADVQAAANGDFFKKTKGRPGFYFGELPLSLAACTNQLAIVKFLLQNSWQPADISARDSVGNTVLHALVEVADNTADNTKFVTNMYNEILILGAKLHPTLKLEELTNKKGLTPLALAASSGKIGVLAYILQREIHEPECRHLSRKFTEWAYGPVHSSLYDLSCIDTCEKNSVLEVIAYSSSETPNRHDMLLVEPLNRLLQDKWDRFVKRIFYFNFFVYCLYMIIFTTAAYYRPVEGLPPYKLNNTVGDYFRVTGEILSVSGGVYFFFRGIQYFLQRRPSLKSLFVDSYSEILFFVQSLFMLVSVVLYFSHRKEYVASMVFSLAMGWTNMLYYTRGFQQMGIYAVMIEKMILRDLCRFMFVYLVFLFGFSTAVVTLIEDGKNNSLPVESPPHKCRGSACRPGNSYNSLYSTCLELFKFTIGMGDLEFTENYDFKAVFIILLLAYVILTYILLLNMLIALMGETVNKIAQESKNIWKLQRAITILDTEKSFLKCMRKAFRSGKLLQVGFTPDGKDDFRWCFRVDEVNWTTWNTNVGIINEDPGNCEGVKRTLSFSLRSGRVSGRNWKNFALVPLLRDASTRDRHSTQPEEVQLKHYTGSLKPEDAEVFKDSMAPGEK
Description: (§3) As described in details in a previous report, macroscopic currents (in whole-cell, inside-out or outside-out configuration) as well as single-channel currents were recorded using a HEKA EPC10 amplifier with the PatchMaster software (HEKA). Both pipette solution and bath solution contained 130 mM NaCl, 3 mM HEPES and 0.2 mM EDTA (pH 7.2). All recordings were performed at room temperature unless otherwise stated. A holding potential of 0 mV was used from which a testing pulse to +80 mV was applied. Statistical difference was determined using the Student’s t-test, and indicated by ** when reaching the significance level P<0.001.

TRPV1 [3] = experiment: RhTx-induced desensitization of TRPV1 heat activation, inside-out patch; format: cell-based; conditions: 10 μM RhTx in patch pipette solution, inside-out patches, heating to 55 °C, n=8
Excerpt: For recording the RhTx-induced desensitization of TRPV1, temperature control was achieved by perfusion of preheated or room-temperature bathing solution. Hot bathing solution were maintained at expected temperature with an SH-27B in-line solution heater controlled by a TC-324C temperature controller (Warner). A solution exchanger RSC-200 with eight separate tubes to deliver room-temperature bathing solution and capsaicin. A TA-29 miniature bead thermistor (Harvard Apparatus) was placed right next to the pipette to ensure accurate monitoring of local temperature.

[4] = test system: mTRPV1 point mutants at D602, Y632, T634 and L461; experiment: Calcium imaging of mTRPV1 point mutants; format: cell-based, mouse; conditions: glycine or alanine mutation; 10 μM RhTx, 10 μM capsaicin
Excerpt: TRPV1 and TRPV3 chimeras used in this study were generated by the overlapping extension method[54] and confirmed by DNA sequencing, as described previously. Briefly, to generate V1/3S, the primer pairs (5′-[…]-3′and 5′-[…]-3′) were used. To generate other TRPV1/TRPV3 chimeras, the enzyme cutting sites by MluI were made by the primer pair (5′-[…]-3′ and 5′-[…]-3′) for TRPV1 and the primer pair (5′-[…]-3′ and 5′-[…]-3′) for TRPV3. The enzyme cutting sites by PvuI were made by the primer pair (5′-[…]-3′ and 5′-[…]-3′) for TRPV1 and the primer pair (5′-[…]-3′ and 5′-[…]-3′) for TRPV3. The enzyme cutting sites by BsiWI were made by the primer pair (5′-[…]-3′ and 5′-[…]-3′) for TRPV1 and the primer pair (5′-[…]-3′ and 5′-[…]-3′) for TRPV3. […]
Mouse DRG neurons were acutely dissociated and maintained in a short-term primary culture according to procedures as previous descripted. […] Fluorescence images of DRG neurons and HEK-293T cells were acquired with an Olympus IX81 microscope with Hamamatsu C4742 charge-coupled device camera controlled by the MetaFluor Software (Molecular Devices). Fluo-4 was excited by a mercury vapour light source with a 500/20-nm excitation filter, while fluorescence emission was detected with a 535/30-nm emission filter. Fluorescence images were required with automated routines written in MetaMorph software (Molecular Devices) and analysed with Igor Pro (Wavemetrics).

mTRPV4 = experiment: Selectivity recording on mTRPV4; format: cell-based, mouse; conditions: RhTx at 10 μM
Description: as §3, §1, §2

TRPV1 [5] = experiment: Cooling of RhTx- or capsaicin-induced channel activation; format: cell-based; conditions: RhTx at 1 μM
Description: as §3

TRPV1 [6] = experiment: Single-channel recording of TRPV1; format: cell-based; conditions: single-channel analysis
Description: as §3

mTRPV2 = experiment: Selectivity recording on mTRPV2; format: cell-based, mouse; conditions: RhTx at 10 μM
Description: as §3, §1, §2

[7] = test system: mTRPV1 point mutants at D602, Y632, T634 and L461; experiment: Whole-cell current of mTRPV1 point mutants; format: cell-based, mouse; conditions: glycine or alanine mutation, both at 10 μM, +80 mV
Excerpt: TRPV1 and TRPV3 chimeras used in this study were generated by the overlapping extension method[54] and confirmed by DNA sequencing, as described previously. Briefly, to generate V1/3S, the primer pairs (5′-[…]-3′and 5′-[…]-3′) were used. To generate other TRPV1/TRPV3 chimeras, the enzyme cutting sites by MluI were made by the primer pair (5′-[…]-3′ and 5′-[…]-3′) for TRPV1 and the primer pair (5′-[…]-3′ and 5′-[…]-3′) for TRPV3. The enzyme cutting sites by PvuI were made by the primer pair (5′-[…]-3′ and 5′-[…]-3′) for TRPV1 and the primer pair (5′-[…]-3′ and 5′-[…]-3′) for TRPV3. The enzyme cutting sites by BsiWI were made by the primer pair (5′-[…]-3′ and 5′-[…]-3′) for TRPV1 and the primer pair (5′-[…]-3′ and 5′-[…]-3′) for TRPV3. V1/3M were generated by enzyme cut and paste between MluI and PvuI sites, while V1/3L were generated by enzyme cut and paste between MluI and BsiWI sites. V1_S1S2_1, V1_S1S2_3 and V1_S1S2_3 were generated as previously reported. […]
As described in details in a previous report, macroscopic currents (in whole-cell, inside-out or outside-out configuration) as well as single-channel currents were recorded using a HEKA EPC10 amplifier with the PatchMaster software (HEKA). […] Statistical difference was determined using the Student’s t-test, and indicated by ** when reaching the significance level P<0.001.

TRPV1 [8] = experiment: Infrared laser-induced heat activation, inside-out patch; format: cell-based
Description: The experimental set-up for rapidly heating cell membrane containing expressed TRPV1 channels was described in a previous report. Electrophysiological recordings were done in the inside-out mode. Toxin was added in the pipette solution. Laser light of 1,443 nm was generated by a laser diode (Fitel) driven by a controller (Thorlabs). The maximal optic output power of the laser was 250 mW. The laser light was transmitted to the voltage-clamped cell membrane through a single-mode optical fibre (125 μm outer diameter, 10 μm light-conducting core diameter), with the patch pipette tip placed in front of the centre of the optical fibre. Light energy was absorbed by water and converted to heat to drive channel activation. To calibrate the laser heating system, the relationship between laser driving power and temperature was tabulated as previously described. Briefly, a glass pipette was filled with a solution distinct from the bath solution and was centred at the end of the optical fibre. The laser driving power was adjusted to produce junction potential values matching those measured in the same solutions at different temperatures.

## CC[C@H](C)[C@H](NC(=O)[C@@H]1CSSC[C@@H]2NC(=O)[C@H]([C@@H](C)O)NC(=O)[C@H](C(C)C)NC(=O)CNC(=O)[C@H](CC(N)=O)NC(=O)[C@@H](NC(=O)[C@@H]3CCCN3C(=O)[C@H](CC(N)=O)NC(=O)[C@H](CC(N)=O)NC(=O)[C@@H](N)CC(C)C)CSSC[C@H](NC(=O)[C@H](CCCNC(=N)N)NC(=O)[C@H](Cc3ccc(O)cc3)NC(=O)CNC(=O)[C@H](CO)NC(=O)[C@@H]3CCCN3C2=O)C(=O)N[C@@H](CO)C(=O)N[C@@H]([C@@H](C)CC)C(=O)N[C@@H](C(C)C)C(=O)N[C@@H](CC(=O)O)C(=O)N[C@@H](CCCCN)C(=O)N[C@@H](CCC(N)=O)C(=O)N1)C(=O)N[C@@H](CCCCN)C(=O)N[C@@H](CCCCN)C(=O)N[C@@H](CCC(=O)O)C(=O)O [RhTx] (H-LNNPCNGVTCPSGYRCSIVDKQCIKKE-OH; disulfide 5-16, 10-23; N-terminus and C-terminus assumed)
voltage-gated K channels
  effect on voltage-gated K channels: no detectable effect; also recorded: no discernable response
[1]
  effect on voltage-gated Na channels: no detectable effect; also recorded: no discernable response
[2]
  effect on voltage-gated Ca channels: no detectable effect; also recorded: no discernable response
mTRPV1
  activity when applied from the intracellular side: completely ineffective; also recorded: no activity
TRPV1 [3]
  TRPV1 heat response after extended incubation with toxin: selectively desensitized TRPV1 heat activation but not capsaicin activation; also recorded: incapable to respond to heat
[4]
  agonist-induced intracellular calcium increase in point mutants versus WT channel: markedly reduced
mTRPV4
  response of TRPV4: no detectable effect; also recorded: no discernable response
TRPV1 [5]
  effect of lowering the experimental temperature on agonist-induced channel activation: completely prohibited
TRPV1 [6]
  inward single-channel current amplitude compared with capsaicin-elicited currents: noticeable reduction
  open probability: near unity
mTRPV2
  response of TRPV2: no detectable effect; also recorded: no discernable response
[7]
  agonist-induced current in point mutants versus WT channel: markedly reduced
TRPV1 [8]; RhTx at 50 nM in pipette, inside-out patch, +80 mV
  effect on infrared laser-induced heat activation, 50 nM: substantially potentiated
TRPV1 [8]; RhTx at 100 nM
  lowering of the activation threshold temperature: 6 °C
